What was measured:
Experiment in all cases: Screening of fungi for enzyme activity with 4-methylumbelliferone-labelled substrates
Assay type in all cases: cell-based
[1] = tested on: Ascobolus crenulatus (AAS 1); settings: substrate 10 μM, 25° C., pH 5; for Enzyme activity: amount of released 4-methylumbelliferone: mineral medium; for Enzyme activity: amount of released 4-methylumbelliferone during 5 hours of incubation: vegetable juice medium
[2] = tested on: Trametes versicolor (AGM 24); settings: substrate 10 μM, 25° C., pH 5; for Enzyme activity: amount of released 4-methylumbelliferone: mineral medium; for Enzyme activity: amount of released 4-methylumbelliferone during 5 hours of incubation: vegetable juice medium
[3] = tested on: Penicillium solitum (IBT 13771); settings: substrate 10 μM, 25° C., pH 5; for Enzyme activity: amount of released 4-methylumbelliferone: mineral medium; for Enzyme activity: amount of released 4-methylumbelliferone during 5 hours of incubation: vegetable juice medium
Eurotium sp. (AAS 36) = settings: substrate 10 μM, 25° C., pH 5; for Enzyme activity: amount of released 4-methylumbelliferone: mineral medium; for Enzyme activity: amount of released 4-methylumbelliferone during 5 hours of incubation: vegetable juice medium
[4] = tested on: Aspergillus oryzae (AGM 11); settings: substrate 10 μM, 25° C., pH 5; for Enzyme activity: amount of released 4-methylumbelliferone: mineral medium; for Enzyme activity: amount of released 4-methylumbelliferone during 5 hours of incubation: vegetable juice medium
[5] = tested on: Schizophyllum commune (AGM 25); settings: substrate 10 μM, 25° C., pH 5; for Enzyme activity: amount of released 4-methylumbelliferone: mineral medium; for Enzyme activity: amount of released 4-methylumbelliferone during 5 hours of incubation: vegetable juice medium
[6] = tested on: Rhizomucor pusillus (AAS 300); settings: substrate 10 μM, 25° C., pH 5; for Enzyme activity: amount of released 4-methylumbelliferone: mineral medium; for Enzyme activity: amount of released 4-methylumbelliferone during 5 hours of incubation: vegetable juice medium
[7] = tested on: Penicillium commune (IBT 13713); settings: substrate 10 μM, 25° C., pH 5; for Enzyme activity: amount of released 4-methylumbelliferone: mineral medium; for Enzyme activity: amount of released 4-methylumbelliferone during 5 hours of incubation: vegetable juice medium
[8] = tested on: Cladosporium herbarum (AGM 8); settings: substrate 10 μM, 25° C., pH 5; for Enzyme activity: amount of released 4-methylumbelliferone: mineral medium; for Enzyme activity: amount of released 4-methylumbelliferone during 5 hours of incubation: vegetable juice medium
[9] = tested on: Paecilomyces farinosus (AGM 5); settings: substrate 10 μM, 25° C., pH 5; for Enzyme activity: amount of released 4-methylumbelliferone: mineral medium; for Enzyme activity: amount of released 4-methylumbelliferone during 5 hours of incubation: vegetable juice medium
[10] = tested on: Aspergillus versicolor (IBT 13738); settings: substrate 10 μM, 25° C., pH 5; for Enzyme activity: amount of released 4-methylumbelliferone: mineral medium; for Enzyme activity: amount of released 4-methylumbelliferone during 5 hours of incubation: vegetable juice medium
[11] = tested on: Aureobasidium pullulans (QM 3092); settings: substrate 10 μM, 25° C., pH 5; for Enzyme activity: amount of released 4-methylumbelliferone during 5 hours of incubation: Aureobasidium pulluians (QM 3092), vegetable juice medium; for Enzyme activity: amount of released 4-methylumbelliferone: Aureobasidium pullulans (QM 3092), mineral medium
[12] = tested on: Mucor racemosus (AAS 310); settings: substrate 10 μM, 25° C., pH 5; for Enzyme activity: amount of released 4-methylumbelliferone: mineral medium; for Enzyme activity: amount of released 4-methylumbelliferone during 5 hours of incubation: vegetable juice medium
[13] = tested on: Sodaria fimicola (AAS 17); settings: substrate 10 μM, 25° C., pH 5; for Enzyme activity: amount of released 4-methylumbelliferone: mineral medium; for Enzyme activity: amount of released 4-methylumbelliferone during 5 hours of incubation: vegetable juice medium

Structure (SMILES)	Enzyme activity: amount of released 4-methylumbelliferone [1]	Enzyme activity: amount of released 4-methylumbelliferone during 5 hours of incubation [1]	Enzyme activity: amount of released 4-methylumbelliferone [2]	Enzyme activity: amount of released 4-methylumbelliferone during 5 hours of incubation [2]	Enzyme activity: amount of released 4-methylumbelliferone [3]	Enzyme activity: amount of released 4-methylumbelliferone during 5 hours of incubation [3]	Enzyme activity: amount of released 4-methylumbelliferone (Eurotium sp. (AAS 36))	Enzyme activity: amount of released 4-methylumbelliferone during 5 hours of incubation (Eurotium sp. (AAS 36))	Enzyme activity: amount of released 4-methylumbelliferone [4]	Enzyme activity: amount of released 4-methylumbelliferone during 5 hours of incubation [4]	Enzyme activity: amount of released 4-methylumbelliferone [5]	Enzyme activity: amount of released 4-methylumbelliferone during 5 hours of incubation [5]	Enzyme activity: amount of released 4-methylumbelliferone [6]	Enzyme activity: amount of released 4-methylumbelliferone during 5 hours of incubation [6]	Enzyme activity: amount of released 4-methylumbelliferone [7]	Enzyme activity: amount of released 4-methylumbelliferone during 5 hours of incubation [7]	Enzyme activity: amount of released 4-methylumbelliferone [8]	Enzyme activity: amount of released 4-methylumbelliferone during 5 hours of incubation [8]	Enzyme activity: amount of released 4-methylumbelliferone [9]	Enzyme activity: amount of released 4-methylumbelliferone during 5 hours of incubation [9]	further results
CC(=O)N[C@H]1[C@@H](Oc2ccc3c(C)cc(=O)oc3c2)O[C@H](CO)[C@@H](O)[C@@H]1O [substrate 2, 4-methylumbelliferyl N-acetyl-α-D-glucosaminide]	0 µmol	0 µmol	0 µmol	0 µmol	0 µmol	0 µmol	0 µmol	0 µmol	0 µmol	0 µmol	0 µmol	0 µmol	0 µmol	0 µmol	0 µmol	0 µmol	0 µmol	0 µmol	0 µmol	0 µmol	Enzyme activity: amount of released 4-methylumbelliferone [10]: 0 µmol; Enzyme activity: amount of released 4-methylumbelliferone during 5 hours of incubation [10]: 0 µmol; Enzyme activity: amount of released 4-methylumbelliferone during 5 hours of incubation [11]: 0 µmol; Enzyme activity: amount of released 4-methylumbelliferone [11]: 0 µmol; Enzyme activity: amount of released 4-methylumbelliferone [12]: 0 µmol; Enzyme activity: amount of released 4-methylumbelliferone during 5 hours of incubation [12]: 0 µmol; Enzyme activity: amount of released 4-methylumbelliferone [13]: 0 µmol; Enzyme activity: amount of released 4-methylumbelliferone during 5 hours of incubation [13]: 0 µmol
Cc1cc(=O)oc2cc(OC3OC(CO)C(O)C(O)C3O)ccc12 [substrate 5, 4-methylumbelliferyl α-D-mannopyranoside]	0 µmol	0 µmol	0 µmol	* (0.4 ≦ * < 1)	0 µmol	0 µmol	0 µmol	* (0.4 ≦ * < 1)	0 µmol	*** (2 ≦ ***)	0 µmol	** (1 ≦ ** 2)	0 µmol	*** (2 ≦ ***)	0 µmol	* (0.4 ≦ * < 1)	0 µmol	0 µmol	0 µmol	0 µmol	Enzyme activity: amount of released 4-methylumbelliferone [10]: 0 µmol; Enzyme activity: amount of released 4-methylumbelliferone during 5 hours of incubation [10]: 0 µmol; Enzyme activity: amount of released 4-methylumbelliferone during 5 hours of incubation [11]: ** (1 ≦ ** 2); Enzyme activity: amount of released 4-methylumbelliferone [11]: 0 µmol; Enzyme activity: amount of released 4-methylumbelliferone [12]: 0 µmol; Enzyme activity: amount of released 4-methylumbelliferone during 5 hours of incubation [12]: * (0.4 ≦ * < 1); Enzyme activity: amount of released 4-methylumbelliferone [13]: 0 µmol; Enzyme activity: amount of released 4-methylumbelliferone during 5 hours of incubation [13]: *** (2 ≦ ***)
Cc1cc(=O)oc2cc(O[C@@H]3O[C@H](CO)[C@@H](O)[C@H](O)[C@@H]3O)ccc12 [substrate 6, 4-methylumbelliferyl β-D-mannopyranoside]	0 µmol	* (0.4 ≦ * < 1)	0 µmol	0 µmol	0 µmol	0 µmol	0 µmol	0 µmol	0 µmol	*** (2 ≦ ***)	0 µmol	*** (2 ≦ ***)	0 µmol	0 µmol	0 µmol	* (0.4 ≦ * < 1)	0 µmol	0 µmol	0 µmol	0 µmol	Enzyme activity: amount of released 4-methylumbelliferone [10]: 0 µmol; Enzyme activity: amount of released 4-methylumbelliferone during 5 hours of incubation [10]: 0 µmol; Enzyme activity: amount of released 4-methylumbelliferone during 5 hours of incubation [11]: ** (1 ≦ ** 2); Enzyme activity: amount of released 4-methylumbelliferone [11]: 0 µmol; Enzyme activity: amount of released 4-methylumbelliferone [12]: 0 µmol; Enzyme activity: amount of released 4-methylumbelliferone during 5 hours of incubation [12]: ** (1 ≦ ** 2); Enzyme activity: amount of released 4-methylumbelliferone [13]: 0 µmol; Enzyme activity: amount of released 4-methylumbelliferone during 5 hours of incubation [13]: *** (2 ≦ ***)
Cc1cc(=O)oc2cc(O[C@H]3O[C@H](C)[C@H](O)[C@H](O)[C@H]3O)ccc12 [substrate 10, 4-methylumbelliferyl α-D-fucoside]	0 µmol	0 µmol	0 µmol	0 µmol	0 µmol	0 µmol	0 µmol	0 µmol	0 µmol	0 µmol	0 µmol	0 µmol	0 µmol	*** (2 ≦ ***)	0 µmol	0 µmol	0 µmol	0 µmol	0 µmol	0 µmol	Enzyme activity: amount of released 4-methylumbelliferone [10]: 0 µmol; Enzyme activity: amount of released 4-methylumbelliferone during 5 hours of incubation [10]: 0 µmol; Enzyme activity: amount of released 4-methylumbelliferone during 5 hours of incubation [11]: 0 µmol; Enzyme activity: amount of released 4-methylumbelliferone [11]: * (0.4 ≦ * < 1); Enzyme activity: amount of released 4-methylumbelliferone [12]: 0 µmol; Enzyme activity: amount of released 4-methylumbelliferone during 5 hours of incubation [12]: ** (1 ≦ ** 2); Enzyme activity: amount of released 4-methylumbelliferone [13]: 0 µmol; Enzyme activity: amount of released 4-methylumbelliferone during 5 hours of incubation [13]: 0 µmol
